Several values for one entry are separate records, joined by “and”; a condition that tells them apart may be missing. Equal entries are not always repeated. Inconclusive results and toxic doses are left out. No stated cut-off is given here; in the data, active means T/C of 150% or more; inactive means T/C below 125%.
System: L1210 leukemia ip in BDF1 mice, survival T/C
Assay: NCI In Vivo Anticancer Drug Screen. Data for tumor model L1210 Leukemia (intraperitoneal) in B6D2F1 (BDF1) mice
Settings: endpoint: mean survival time, higher = longer survival
In short: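 Antitumor effect is assessed in tumor-bearing animals. Survival in the compound arm is compared with a vehicle-dosed control arm and expressed as their quotient.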

[1] = dose: 100.0 mg/kg/injection, schedule: Q04DX002 (ip), vehicle: saline
[2] = dose: 200.0 mg/kg/injection, schedule: Q04DX002 (ip), vehicle: saline
[3] = dose: 100.0 mg/kg/injection, schedule: Q01DX009 (ip), vehicle: saline with Tween-80
[4] = dose: 100.0 mg/kg/injection, schedule: Q04DX003 (ip), vehicle: Klucel (hydroxypropylcellulose) (HPC)
[5] = dose: 200.0 mg/kg/injection, schedule: Q04DX003 (ip), vehicle: Klucel (hydroxypropylcellulose) (HPC)
[6] = dose: 100.0 mg/kg/injection, schedule: Q01DX001 (ip), vehicle: saline
[7] = dose: 200.0 mg/kg/injection, schedule: Q01DX001 (ip), vehicle: saline
[8] = dose: 50.0 mg/kg/injection, schedule: Q04DX003 (ip), vehicle: Klucel (hydroxypropylcellulose) (HPC)
[9] = dose: 400.0 mg/kg/injection, schedule: Q04DX003 (ip), vehicle: Klucel (hydroxypropylcellulose) (HPC)
[10] = dose: 100.0 mg/kg/injection, schedule: Q01DX001 (ip), vehicle: carboxymethylcellulose (CMC)
[11] = dose: 200.0 mg/kg/injection, schedule: Q01DX001 (ip), vehicle: carboxymethylcellulose (CMC)
[12] = dose: 400.0 mg/kg/injection, schedule: Q01DX001 (ip), vehicle: carboxymethylcellulose (CMC)
[13] = dose: 100.0 mg/kg/injection, schedule: Q01DX009 (ip), vehicle: Klucel (hydroxypropylcellulose) (HPC)
[14] = dose: 200.0 mg/kg/injection, schedule: Q01DX009 (ip), vehicle: Klucel (hydroxypropylcellulose) (HPC)
[15] = dose: 50.0 mg/kg/injection, schedule: Q01DX009 (ip), vehicle: saline with Tween-80

Measured: T/C

CCNC(=O)N=C1SCCS1
inactive: [1] 118 % of control | [2] 118 % of control | dose: 400.0 mg/kg/injection, schedule: Q04DX002 (ip), vehicle: saline 96 % of control

CSCCC(C#N)(CCN(C)C)c1ccccc1 (centres undefined)
inactive: dose: 25.0 mg/kg/injection, schedule: Q01DX009 (ip), vehicle: other 102 % of control | dose: 50.0 mg/kg/injection, schedule: Q01DX009 (ip), vehicle: other 98 % of control | dose: 100.0 mg/kg/injection, schedule: Q01DX009 (ip), vehicle: other 91 % of control | [3] 97 % of control | [4] 96 % of control | [5] 98 % of control

CC(=O)Nc1cccc(-c2nnc(C3CCCC(NC(C)=O)C3)nn2)c1 (centres undefined)
inactive: [6] 96 % of control | [7] 88 % of control | dose: 400.0 mg/kg/injection, schedule: Q01DX001 (ip), vehicle: saline 88 % of control

CC(=S)c1ccccc1
inactive: [8] 102 % of control | [4] 107 % of control | [5] 92 % of control | [9] 97 % of control

O=C(N=C1C=CC(=NC(=O)c2ccccc2)C=C1)c1ccccc1
inactive: dose: 75.0 mg/kg/injection, schedule: Q04DX003 (ip), vehicle: Klucel (hydroxypropylcellulose) (HPC) 87 % of control | dose: 150.0 mg/kg/injection, schedule: Q04DX003 (ip), vehicle: Klucel (hydroxypropylcellulose) (HPC) 92 % of control | dose: 300.0 mg/kg/injection, schedule: Q04DX003 (ip), vehicle: Klucel (hydroxypropylcellulose) (HPC) 87 % of control

CC(=O)OC1C=CC(=O)OC1C1OC1C (centres undefined)
inactive: dose: 4.0 mg/kg/injection, schedule: Q01DX Z (ip), vehicle: saline 100 % of control | dose: 6.0 mg/kg/injection, schedule: Q01DX Z (ip), vehicle: saline 111 % of control | dose: 9.0 mg/kg/injection, schedule: Q01DX Z (ip), vehicle: saline 110 % of control | dose: 13.0 mg/kg/injection, schedule: Q01DX Z (ip), vehicle: saline 100 % of control and 108 % of control | dose: 19.0 mg/kg/injection, schedule: Q01DX Z (ip), vehicle: saline 103 % of control | dose: 29.0 mg/kg/injection, schedule: Q01DX Z (ip), vehicle: saline 103 % of control

O=C(Nc1ccc(S(=O)(=O)N2CCCCC2)cc1)OC(c1ccccc1)(c1ccccc1)c1ccccc1
inactive: [10] 94 % of control | [11] 91 % of control | [12] 89 % of control

CN1CCN(c2ncnc3c2ncn3C2OC(CO)C(O)C2O)CC1 (centres undefined)
inactive: dose: 100.0 mg/kg/injection, schedule: Q01DX005 (ip), vehicle: water 95 % of control | dose: 200.0 mg/kg/injection, schedule: Q01DX005 (ip), vehicle: water 90 % of control | dose: 400.0 mg/kg/injection, schedule: Q01DX005 (ip), vehicle: water 93 % of control

C=CC[Se]CC=C
inactive: [4] 106 % of control | [5] 121 % of control

CCOC(=O)C(C(=O)OCC)c1cc(Cl)nnc1Cl
inactive: [1] 91 % of control | [2] 91 % of control

CCCCCCCCC(C)C
inactive: dose: 100.0 mg/kg/injection, schedule: Q04DX002 (ip), vehicle: saline with Tween-80 100 % of control | dose: 200.0 mg/kg/injection, schedule: Q04DX002 (ip), vehicle: saline with Tween-80 97 % of control

NS(=O)(=O)c1ccc(NC(=O)Nc2cc([N+](=O)[O-])ccc2F)cc1
inactive: [4] 98 % of control | [5] 95 % of control | [9] 87 % of control

Clc1ccc(Cl)c2c(Br)cncc12
inactive: dose: 100.0 mg/kg/injection, schedule: Q01DX001 (ip), vehicle: other 98 % of control | dose: 200.0 mg/kg/injection, schedule: Q01DX001 (ip), vehicle: other 98 % of control | dose: 400.0 mg/kg/injection, schedule: Q01DX001 (ip), vehicle: other 93 % of control

C=CCOC(=O)CCl
inactive: dose: 55.0 mg/kg/injection, schedule: Q01DX Z (ip), vehicle: methylcellulose (MC) 87 % of control | dose: 100.0 mg/kg/injection, schedule: Q01DX001 (ip), vehicle: saline with Tween-80 92 % of control | dose: 200.0 mg/kg/injection, schedule: Q01DX001 (ip), vehicle: saline with Tween-80 98 % of control

NC(=O)c1cc(Br)ccc1O
inactive: dose: 50.0 mg/kg/injection, schedule: Q01DX009 (ip), vehicle: Klucel (hydroxypropylcellulose) (HPC) 89 % of control | [13] 92 % of control | [14] 95 % of control

CC(=O)Nc1ccc(NC(=O)Nc2ccc(Cl)cc2)cc1
inactive: dose: 25.0 mg/kg/injection, schedule: Q01DX001 (ip), vehicle: carboxymethylcellulose (CMC) 92 % of control and 90 % of control | dose: 50.0 mg/kg/injection, schedule: Q01DX001 (ip), vehicle: carboxymethylcellulose (CMC) 93 % of control and 97 % of control | [10] 95 % of control and 101 % of control and 87 % of control | dose: 100.0 mg/kg/injection, schedule: Q01DX009 (ip), vehicle: carboxymethylcellulose (CMC) 93 % of control and 94 % of control | dose: 100.0 mg/kg/injection, schedule: Q04DX003 (ip), vehicle: carboxymethylcellulose (CMC) 87 % of control and 88 % of control | [11] 94 % of control | dose: 200.0 mg/kg/injection, schedule: Q01DX009 (ip), vehicle: carboxymethylcellulose (CMC) 92 % of control and 94 % of control | dose: 200.0 mg/kg/injection, schedule: Q04DX003 (ip), vehicle: carboxymethylcellulose (CMC) 92 % of control and 90 % of control | [12] 95 % of control | dose: 400.0 mg/kg/injection, schedule: Q01DX009 (ip), vehicle: carboxymethylcellulose (CMC) 104 % of control and 122 % of control | dose: 400.0 mg/kg/injection, schedule: Q04DX003 (ip), vehicle: carboxymethylcellulose (CMC) 98 % of control and 87 % of control

COc1ccc(C)cc1NC(=O)OCCOc1ccc(Cl)c(C)c1
inactive: [15] 93 % of control | [3] 90 % of control | dose: 200.0 mg/kg/injection, schedule: Q01DX009 (ip), vehicle: saline with Tween-80 93 % of control

CC(C)(C)NC1=NCCO1
inactive: dose: 25.0 mg/kg/injection, schedule: Q01DX009 (ip), vehicle: saline with Tween-80 100 % of control | [15] 102 % of control | [3] 96 % of control | dose: 100.0 mg/kg/injection, schedule: Q04DX003 (ip), vehicle: saline with Tween-80 100 % of control

COc1ccc2c3c1O[C@H]1C(O)C=C[C@H]4[C@@H](C2)N(C)CC[C@]314 (some centres undefined)
inactive: [6] 95 % of control | [7] 95 % of control

CCCCCCCCC(=O)NCc1cccc(OC)c1
inactive: [4] 95 % of control | [5] 95 % of control | [9] 105 % of control

COc1ccc(-n2c(=O)c(N=Nc3ccc(Cl)cc3)c(O)n(-c3ccc(C)cc3)c2=S)cc1
inactive: dose: 37.5 mg/kg/injection, schedule: Q01DX001 (ip), vehicle: Klucel (hydroxypropylcellulose) (HPC) 92 % of control | dose: 75.0 mg/kg/injection, schedule: Q01DX001 (ip), vehicle: Klucel (hydroxypropylcellulose) (HPC) 92 % of control | dose: 150.0 mg/kg/injection, schedule: Q01DX001 (ip), vehicle: Klucel (hydroxypropylcellulose) (HPC) 91 % of control

c1ccc(-c2nc3ccccc3o2)cc1
inactive: [13] 92 % of control | [4] 92 % of control | [14] 97 % of control | [5] 95 % of control | dose: 400.0 mg/kg/injection, schedule: Q01DX009 (ip), vehicle: Klucel (hydroxypropylcellulose) (HPC) 92 % of control | [9] 103 % of control

COc1ccc(OC)c(NC(=O)Nc2ccc([As](=O)(O)O)cc2)c1
inactive: [8] 96 % of control | [4] 100 % of control | [5] 93 % of control and 88 % of control

— PubChem BioAssay AID248 (DTP/NCI, 2004)
